Legend:
squalene synthase = experiment: Squalene synthase assay (cell lysate); assay type: biochemical; settings: 4 nM to 0.2 mM
Protocol: Squalene Synthase Assay--The cell lysate was prepared immediately prior to running the assay. Cells were washed three times with PBS, once with a 0.1M potassium phosphate buffer (pH 7.4) containing 5 mM MgCl2 and 5 mM CHAPS, and once with a 0.01M potassium phosphate buffer (pH 7.4) containing 0.5 mM MgCl2 and 0.5 mM CHAPS. Cells were scraped with a rubber policeman in approximately 0.5 ml of the final wash buffer and dounce homogenized with 20 strokes, while on ice. An aliquot of cell lysate was examined with a light microscope to ensure that essentially all cells in the sample were lysed. An additional aliquot of cell lysate was saved for protein determination. […] The squalene was isolated by TLC and the radioactivity of the squalene bands was measured as previously described. […]
Since both farnesyl compounds have a structural similarity to farnesyl pyrophosphate, the substrate for squalene synthase, and some of the farnesyl compounds that have been tested function as a competitive inhibitor of squalene synthase, the effects of farnesyl acetate on in vitro squalene synthase activity was measured. As a positive control, squalene synthase activity was also measured in tile presence of zaragozic acid A, a potent competitive inhibitor of the enzyme. […]

[1] = tested on: cholesterol biosynthetic pathway; experiment: TLC distribution of [3H]acetate-derived non-saponifiable lipids (site of metabolic block); assay type: cell-based; parameters: radioactivity in the cell-derived fraction co-migrating with lanosterol / radioactivity in the cell-derived fraction co-migrating with squalene / radioactivity in the cell-derived fraction co-migrating with cholesterol / remaining radioactivity in the cell-derived fraction scattered throughout the rest of the TLC lane: concentration or dose not given beside the values
Protocol: Lipid Saponification and Extraction Procedure Saponification and extraction of lipids from cell and media samples was performed as previously described in Bradfute, et al. (1992) J.B.C. 267:18308-18314.
Thin Layer Chromatography--TLC was performed using Analtech 250 μm silica gel G plates with a hexanes/diethyl ether (1:1) solvent system. Lipid standards were visualized by iodine staining. Bands were scraped from the plate and their radioactivity was measured.
Quantification of Radioactivity--Samples were suspended in 4 ml of scintillation fluid (Cytoscint from ICN). The radioactivity of the samples was measured using a Beckman LS-7500 scintillation counter.
To determine tile site of tile metabolic block caused by farnesyl acetate and ethyl farnesyl ether, the non-saponifiable lipids from cells grown in the presence of the farnesyl compounds were examined for the accumulation of intermediates in the cholesterol biosynthetic pathway. The cells were only labeled for 1 hour and only treated with the farnesyl compounds during the labeling period; so that any intermediates which accumulated would be as a result of the inhibitory effects of the farnesol compounds and not subsequent regulatory effects on HMG-CoA reductase. CHO-HMGal cells were incubated with [^3 H]acetate and either farnesyl acetate, ethyl farnesyl ether, or no additive. The non-saponifiable lipids were isolated from both the cell, and the medium and separated by TLC.

β-galactosidase = β-galactosidase activity in CHO-Gal control cells; assay type: cell-based
Protocol: β-galactosidase Specific Activity--In vitro β-galactosidase activity was measured using the substrate, o-nitrophenyl-β-D-galactopyranoside. Specific activities were calculated using protein concentration values.
To confirm that the reduction in HMGal activity was the result of a regulatory function specifically targeting the membrane domain of HMGal, the effects of farnesyl acetate on β-galactosidase activity were measured in vitro for both CHO-HMGal cells and CHO-Gal cells. The CHO-Gal cells had been stably transfected with a construct identical to the HMGal construct (using the same vector, promoter, and 5' and 3' flanking regions) except that the construct in the CHO-Gal cells codes for a soluble β-galactosidase protein instead of the HMGal fusion protein with the membrane domain of HMG-CoA reductase. In this experiment, the CHO-Gal cells served to control for any artifacts farnesyl acetate might cause in the β-galactosidase assay or any nonspecific effects farnesyl acetate might have on the rates of protein synthesis or degradation.

HMGal = HMGal synthesis rate ([35S]methionine incorporation); assay type: cell-based; settings: 10 μg/ml
Protocol: Measurement of HMGal and HMG-CoA Reductase Synthesis Rates Cells plated into 60×15 mm dishes were grown in 5% LPS MEM with 0.25 mg/ml active geneticin for 24 hours. These cells were washed with PBS and grown for 24 hours in 5% LPS MEM supplemented with 0.25 mg/ml active geneticin, 10 μM compactin and 0.1 mM mevalonate. After 24 hours, the medium was removed, the cells were washed with PBS and the medium was replaced with methionine-free MEM supplemented with 5% LPS, 250 μg/ml of active geneticin, 10 μM compactin, and 0.1 mM mevalonate. In addition, 20 mM mevalonate or 10 μg/ml farnesyl acetate was included in those plates previously treated with these compounds. […] Cells were washed, lysed and the HMGal and HMG-CoA reductase proteins were immunoprecipitated, subjected to SDS-PAGE and quantified. […]
Farnesyl compounds reduce translation and stimulate degradation of HMG-CoA reductase and HMGal A reduction in HMGal specific activity triggered by the farnesyl compounds could have been the result of a decrease in HMGal synthesis, an increase in HMGal degradation, or a combination of changes in both the synthesis and degradation rates. In order to test whether the farnesyl compounds impact synthesis, the rates of HMGal, HMG-CoA reductase, and total cellular protein synthesis were measured by [^35 S]methionine incorporation in the presence and absence of 10 μg/ml farnesyl acetate.

[2] = 1 hour labeling with [3H]acetate, compound only during labeling

With CC(=O)OCC=C(C)CCC=C(C)CCC=C(C)C [farnesyl acetate] the “effect on in vitro squalene synthase activity” value (squalene synthase) was “negligible effect”, the “radioactivity in the cell-derived fraction co-migrating with cholesterol” value [1, 2] was 4% and the “radioactivity in the cell-derived fraction co-migrating with lanosterol” value [1, 2] was 74%. The “radioactivity in the cell-derived fraction co-migrating with squalene” value [1, 2] was 9%, the “remaining radioactivity in the cell-derived fraction scattered throughout the rest of the TLC lane” value [1, 2] was 13% and the “total non-saponifiable radioactivity found in the medium” value ([1]; untreated 6%) was 12%. The “total non-saponifiable radioactivity found in the cells” value ([1]; untreated 94%) was 88%, the “increase in media-derived material co-migrating with farnesol” value ([1]; versus untreated sample) was roughly 3 fold and the “change of β-galactosidase activity of CHO-Gal cells” value (β-galactosidase; 10 μg/ml) was “not changed significantly”. For the same compound, the “change of β-galactosidase activity of CHO-Gal cells” value (β-galactosidase; 20 μg/ml) was “essentially unchanged” and the “reduction in the rate of HMGal synthesis” value (HMGal) was 80%.
